According to ChEMBL document CHEMBL1201862, “PubChem BioAssay data set” (2004):
The source made the active and inactive calls.

Legend:
[1] = molecular target: T1, Replicative DNA helicase DnaB (Mycobacterium tuberculosis, UniProt P9WMR3); experiment: DnaB intein splicing inhibitors, dose response, biochemical, cell-free fluorescence (AID 449749); assay type: functional
T1 sequence (P9WMR3 whole entry): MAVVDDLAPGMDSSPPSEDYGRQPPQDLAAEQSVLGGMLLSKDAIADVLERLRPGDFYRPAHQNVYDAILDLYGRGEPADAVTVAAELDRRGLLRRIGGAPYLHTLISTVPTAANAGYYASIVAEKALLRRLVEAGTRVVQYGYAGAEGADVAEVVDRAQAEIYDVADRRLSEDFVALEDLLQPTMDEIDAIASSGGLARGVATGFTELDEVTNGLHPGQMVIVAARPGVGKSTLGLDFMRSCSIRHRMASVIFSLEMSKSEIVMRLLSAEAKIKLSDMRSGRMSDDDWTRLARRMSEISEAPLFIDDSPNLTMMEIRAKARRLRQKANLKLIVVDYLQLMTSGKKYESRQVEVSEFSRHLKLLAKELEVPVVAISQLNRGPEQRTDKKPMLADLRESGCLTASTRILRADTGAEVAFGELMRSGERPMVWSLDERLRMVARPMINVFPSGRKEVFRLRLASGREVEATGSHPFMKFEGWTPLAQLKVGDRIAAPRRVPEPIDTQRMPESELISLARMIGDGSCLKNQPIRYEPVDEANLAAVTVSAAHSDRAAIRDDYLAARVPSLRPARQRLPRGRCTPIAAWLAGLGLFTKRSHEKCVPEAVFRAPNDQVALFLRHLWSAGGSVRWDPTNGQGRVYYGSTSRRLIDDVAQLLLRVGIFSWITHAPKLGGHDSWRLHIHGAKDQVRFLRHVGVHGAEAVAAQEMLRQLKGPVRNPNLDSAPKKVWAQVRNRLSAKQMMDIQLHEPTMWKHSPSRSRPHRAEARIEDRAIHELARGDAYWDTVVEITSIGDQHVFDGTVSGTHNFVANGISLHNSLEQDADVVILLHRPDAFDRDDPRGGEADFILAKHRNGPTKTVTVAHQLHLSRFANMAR

[2] = reduced cellular PGC1a acetyl-lysine signal – cell-based, cherry-picked samples, dose response (AID 720514); assay type: functional;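 note: potency may reflect raised or lowered acetylation signal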
[3] = molecular target: SWI/SNF-related matrix-associated actin-dependent regulator of chromatin subfamily A member 2 (Homo sapiens, UniProt P51531); experiment: Luminescence-based cell-based high throughput dose response assay to identify activators of the function of SWI/SNF related, matrix associated, actin dependent regulator of chromatin, subfamily a, member 2 (SMARCA2, BRM).; assay type: functional
Protein RecA = molecular target: T2, Protein RecA (Mycobacterium tuberculosis, UniProt P9WHJ3); experiment: Fluorescence Cell-Free Homogeneous Dose Retest to Identify Inhibitors of RecA-Intein Splicing Activity. [Related pubchem assays (depositor defined):AID2097, AID2223, AID489010, AID492950]; assay type: functional
T2 sequence (P9WHJ3 whole entry): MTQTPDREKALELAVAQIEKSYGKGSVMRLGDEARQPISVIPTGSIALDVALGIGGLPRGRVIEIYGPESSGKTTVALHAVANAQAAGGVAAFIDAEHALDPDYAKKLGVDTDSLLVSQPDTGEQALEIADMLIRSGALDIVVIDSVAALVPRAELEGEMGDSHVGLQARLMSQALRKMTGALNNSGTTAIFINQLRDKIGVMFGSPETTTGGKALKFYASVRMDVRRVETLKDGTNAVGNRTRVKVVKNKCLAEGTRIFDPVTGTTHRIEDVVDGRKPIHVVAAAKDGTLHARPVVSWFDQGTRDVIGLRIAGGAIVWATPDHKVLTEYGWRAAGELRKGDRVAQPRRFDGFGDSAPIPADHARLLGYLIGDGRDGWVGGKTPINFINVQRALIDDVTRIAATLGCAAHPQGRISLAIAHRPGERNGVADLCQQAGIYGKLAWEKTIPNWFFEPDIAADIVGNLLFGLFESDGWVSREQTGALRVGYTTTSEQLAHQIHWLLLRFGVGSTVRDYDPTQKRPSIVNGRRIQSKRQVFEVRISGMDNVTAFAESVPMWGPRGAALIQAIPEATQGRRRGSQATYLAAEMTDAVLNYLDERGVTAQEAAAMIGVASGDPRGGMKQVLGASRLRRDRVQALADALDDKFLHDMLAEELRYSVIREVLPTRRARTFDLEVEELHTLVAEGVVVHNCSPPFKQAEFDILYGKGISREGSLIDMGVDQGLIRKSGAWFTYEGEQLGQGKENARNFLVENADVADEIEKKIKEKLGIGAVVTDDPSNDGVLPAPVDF

[4] = Counterscreen for activators of the function of SWI/SNF related, matrix associated, actin dependent regulator of chromatin, subfamily a, member 2 (SMARCA2, BRM): Luminescence-based cell-based high throughput dose response assay to identify non-selective compounds using the VP16 reporter assay.; assay type: functional
[5] = molecular target: Kappa-type opioid receptor (Homo sapiens, UniProt P41145); experiment: kappa opioid receptor antagonism potency – cell-based, fluorescence, dose response, late-stage follow-up (AID 652032); assay type: functional
cells = assay type: functional, cell-based; settings: HEK-CNG
Galanin receptor type 3 = Galanin receptor type 3 (Homo sapiens, UniProt O60755); experiment: Fluorescence-based cell-based primary high throughput dose response assay to identify antagonists of the Galanin Receptor 3 (GalR3).; assay type: functional
Fatty acid synthase = Fatty acid synthase (Homo sapiens, UniProt P49327); experiment: inhibition of human FAS-TE enzyme activity – biochemical, endpoint fluorescence intensity, powder samples, SAR follow-up (AID 652164); assay type: functional
HeLa = experiment: viability loss in HeLa cells – cell-based, ATP luminescence, cherry-pick samples, cytotoxicity control, dose response (AID 687004); assay type: functional; settings: Homo sapiens
[6] = molecular target: T3, Calpain-2 catalytic subunit (Sus scrofa, UniProt P43367); experiment: m-calpain protease blockers, concentration series – biochemical, fluorogenic peptide substrate, dose response (AID 1420); assay type: functional
T3 sequence (P43367 whole entry): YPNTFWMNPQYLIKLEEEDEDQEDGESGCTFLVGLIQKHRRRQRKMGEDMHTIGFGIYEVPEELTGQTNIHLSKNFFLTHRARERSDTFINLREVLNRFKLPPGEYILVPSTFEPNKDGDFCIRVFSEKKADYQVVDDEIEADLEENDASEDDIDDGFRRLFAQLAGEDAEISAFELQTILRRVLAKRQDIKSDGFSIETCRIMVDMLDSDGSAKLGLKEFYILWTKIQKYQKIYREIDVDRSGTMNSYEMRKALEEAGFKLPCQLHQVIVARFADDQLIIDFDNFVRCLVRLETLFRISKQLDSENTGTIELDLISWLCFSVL

[7] = HeLa cell viability loss – plate reader, dry powder, cytotoxicity control, dose response (AID 651946); assay type: functional, cell-based

Chain of Kappa-type opioid receptor (P41145 whole entry): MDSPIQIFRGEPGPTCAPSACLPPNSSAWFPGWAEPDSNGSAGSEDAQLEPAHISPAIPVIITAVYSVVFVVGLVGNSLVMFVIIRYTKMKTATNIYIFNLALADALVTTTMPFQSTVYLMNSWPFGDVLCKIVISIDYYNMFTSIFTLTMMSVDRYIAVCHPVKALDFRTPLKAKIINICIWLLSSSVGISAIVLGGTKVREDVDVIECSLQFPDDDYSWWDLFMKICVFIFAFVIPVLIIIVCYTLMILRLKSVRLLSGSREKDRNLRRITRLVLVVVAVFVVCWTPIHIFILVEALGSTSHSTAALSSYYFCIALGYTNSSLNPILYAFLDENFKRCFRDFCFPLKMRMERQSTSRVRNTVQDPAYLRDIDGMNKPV
Chain of SWI/SNF-related matrix-associated actin-dependent regulator of chromatin subfamily A member 2 (P51531 whole entry): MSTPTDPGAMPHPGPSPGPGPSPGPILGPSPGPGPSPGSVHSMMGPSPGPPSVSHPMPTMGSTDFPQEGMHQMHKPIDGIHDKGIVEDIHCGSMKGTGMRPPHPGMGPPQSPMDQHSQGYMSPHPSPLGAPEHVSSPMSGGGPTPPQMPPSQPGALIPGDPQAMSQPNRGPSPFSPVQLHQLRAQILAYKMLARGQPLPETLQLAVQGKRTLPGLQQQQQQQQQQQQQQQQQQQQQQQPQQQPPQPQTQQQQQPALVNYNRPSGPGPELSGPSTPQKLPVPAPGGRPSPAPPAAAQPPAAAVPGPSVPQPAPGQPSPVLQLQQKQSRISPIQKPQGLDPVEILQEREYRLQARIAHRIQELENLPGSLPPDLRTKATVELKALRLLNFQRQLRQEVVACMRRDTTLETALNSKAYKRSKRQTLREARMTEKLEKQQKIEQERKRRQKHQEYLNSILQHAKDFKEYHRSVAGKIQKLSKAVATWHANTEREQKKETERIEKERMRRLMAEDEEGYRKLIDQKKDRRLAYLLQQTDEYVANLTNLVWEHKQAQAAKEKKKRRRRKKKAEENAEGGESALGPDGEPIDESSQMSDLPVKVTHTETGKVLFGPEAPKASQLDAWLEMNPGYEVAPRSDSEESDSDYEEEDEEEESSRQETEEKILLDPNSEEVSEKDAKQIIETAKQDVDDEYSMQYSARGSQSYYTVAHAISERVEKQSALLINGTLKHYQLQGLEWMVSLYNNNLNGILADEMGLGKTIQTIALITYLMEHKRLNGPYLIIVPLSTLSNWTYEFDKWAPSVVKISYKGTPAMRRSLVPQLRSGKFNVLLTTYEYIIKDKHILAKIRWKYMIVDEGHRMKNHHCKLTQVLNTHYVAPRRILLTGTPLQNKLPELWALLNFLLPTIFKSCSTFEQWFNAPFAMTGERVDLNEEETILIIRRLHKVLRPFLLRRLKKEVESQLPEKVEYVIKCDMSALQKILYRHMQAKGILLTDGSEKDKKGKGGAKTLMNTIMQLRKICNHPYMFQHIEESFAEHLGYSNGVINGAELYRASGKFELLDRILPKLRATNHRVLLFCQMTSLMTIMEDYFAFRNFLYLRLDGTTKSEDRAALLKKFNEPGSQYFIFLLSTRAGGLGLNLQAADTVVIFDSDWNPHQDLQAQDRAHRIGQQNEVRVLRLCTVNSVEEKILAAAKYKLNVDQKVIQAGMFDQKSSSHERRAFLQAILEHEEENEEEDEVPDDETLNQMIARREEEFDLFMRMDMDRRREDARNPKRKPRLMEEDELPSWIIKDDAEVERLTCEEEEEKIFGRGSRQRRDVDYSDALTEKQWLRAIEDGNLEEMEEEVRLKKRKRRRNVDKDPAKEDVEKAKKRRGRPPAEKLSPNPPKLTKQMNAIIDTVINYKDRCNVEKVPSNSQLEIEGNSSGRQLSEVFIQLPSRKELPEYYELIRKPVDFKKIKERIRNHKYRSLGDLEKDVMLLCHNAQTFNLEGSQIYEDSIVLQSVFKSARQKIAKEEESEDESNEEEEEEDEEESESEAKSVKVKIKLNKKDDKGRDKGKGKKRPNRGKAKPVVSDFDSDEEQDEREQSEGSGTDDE
Chain of Fatty acid synthase (P49327 whole entry): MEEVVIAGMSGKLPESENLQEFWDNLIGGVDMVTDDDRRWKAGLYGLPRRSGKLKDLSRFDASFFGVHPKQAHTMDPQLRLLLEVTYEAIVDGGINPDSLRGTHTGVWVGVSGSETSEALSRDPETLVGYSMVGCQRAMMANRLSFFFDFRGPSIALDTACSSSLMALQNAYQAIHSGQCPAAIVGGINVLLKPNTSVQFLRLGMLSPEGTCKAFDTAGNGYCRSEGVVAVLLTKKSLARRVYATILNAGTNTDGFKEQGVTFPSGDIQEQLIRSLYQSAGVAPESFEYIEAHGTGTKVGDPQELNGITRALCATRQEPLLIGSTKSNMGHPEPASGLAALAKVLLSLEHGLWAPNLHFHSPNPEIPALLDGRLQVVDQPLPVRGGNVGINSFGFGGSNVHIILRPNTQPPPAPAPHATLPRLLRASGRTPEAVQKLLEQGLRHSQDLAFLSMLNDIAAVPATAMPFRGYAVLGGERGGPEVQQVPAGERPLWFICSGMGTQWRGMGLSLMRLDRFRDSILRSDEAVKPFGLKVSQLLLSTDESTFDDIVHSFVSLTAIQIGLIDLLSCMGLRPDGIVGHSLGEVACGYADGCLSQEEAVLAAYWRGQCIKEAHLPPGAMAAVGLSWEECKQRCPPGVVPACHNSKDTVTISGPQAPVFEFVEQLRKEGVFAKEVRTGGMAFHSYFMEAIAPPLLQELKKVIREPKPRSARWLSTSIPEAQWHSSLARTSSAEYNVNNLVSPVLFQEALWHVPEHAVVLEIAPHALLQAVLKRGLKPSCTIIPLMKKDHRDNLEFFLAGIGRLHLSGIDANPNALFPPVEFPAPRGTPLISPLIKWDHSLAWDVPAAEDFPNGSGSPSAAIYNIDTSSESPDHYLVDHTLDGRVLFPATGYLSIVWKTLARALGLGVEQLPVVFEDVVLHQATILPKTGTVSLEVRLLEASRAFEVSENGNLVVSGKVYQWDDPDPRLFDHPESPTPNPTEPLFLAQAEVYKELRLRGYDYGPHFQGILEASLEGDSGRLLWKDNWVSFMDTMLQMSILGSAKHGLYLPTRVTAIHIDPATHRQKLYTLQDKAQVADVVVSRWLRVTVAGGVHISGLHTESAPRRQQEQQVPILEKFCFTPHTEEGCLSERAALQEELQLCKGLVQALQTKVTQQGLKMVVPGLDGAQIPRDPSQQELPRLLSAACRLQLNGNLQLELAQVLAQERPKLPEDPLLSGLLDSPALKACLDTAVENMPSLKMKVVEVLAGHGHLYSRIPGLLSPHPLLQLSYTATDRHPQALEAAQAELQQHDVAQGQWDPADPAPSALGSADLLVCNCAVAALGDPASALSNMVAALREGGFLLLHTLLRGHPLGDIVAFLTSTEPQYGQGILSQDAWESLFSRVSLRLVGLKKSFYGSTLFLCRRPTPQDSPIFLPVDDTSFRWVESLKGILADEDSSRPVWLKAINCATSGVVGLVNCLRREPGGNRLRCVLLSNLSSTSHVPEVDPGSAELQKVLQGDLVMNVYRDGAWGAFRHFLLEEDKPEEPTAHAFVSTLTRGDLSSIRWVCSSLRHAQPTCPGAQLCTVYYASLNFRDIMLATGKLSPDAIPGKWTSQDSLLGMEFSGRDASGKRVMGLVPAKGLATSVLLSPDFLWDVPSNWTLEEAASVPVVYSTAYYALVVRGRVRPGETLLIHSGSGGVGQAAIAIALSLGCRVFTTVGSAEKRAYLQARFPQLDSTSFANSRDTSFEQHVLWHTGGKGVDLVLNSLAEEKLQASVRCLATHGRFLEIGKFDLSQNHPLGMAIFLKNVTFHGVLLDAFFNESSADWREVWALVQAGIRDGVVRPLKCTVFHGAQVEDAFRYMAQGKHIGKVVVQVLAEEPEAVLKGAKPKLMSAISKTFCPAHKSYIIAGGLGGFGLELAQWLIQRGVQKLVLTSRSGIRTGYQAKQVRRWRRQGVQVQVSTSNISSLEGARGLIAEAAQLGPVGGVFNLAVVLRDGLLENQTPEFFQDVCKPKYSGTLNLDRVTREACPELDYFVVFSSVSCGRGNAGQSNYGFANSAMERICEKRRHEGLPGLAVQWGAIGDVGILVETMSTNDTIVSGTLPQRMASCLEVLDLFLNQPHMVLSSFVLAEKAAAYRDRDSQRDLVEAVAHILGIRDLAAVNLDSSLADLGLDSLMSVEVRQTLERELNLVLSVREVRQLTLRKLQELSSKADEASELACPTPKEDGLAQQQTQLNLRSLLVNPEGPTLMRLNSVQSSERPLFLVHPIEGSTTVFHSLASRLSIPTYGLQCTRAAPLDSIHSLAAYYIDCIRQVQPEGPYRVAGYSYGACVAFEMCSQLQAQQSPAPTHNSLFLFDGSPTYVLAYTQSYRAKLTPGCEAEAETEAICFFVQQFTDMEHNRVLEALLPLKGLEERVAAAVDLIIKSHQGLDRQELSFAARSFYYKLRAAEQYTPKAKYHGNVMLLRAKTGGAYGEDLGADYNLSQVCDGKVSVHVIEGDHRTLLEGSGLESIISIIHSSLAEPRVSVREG
Chain of Galanin receptor type 3 (O60755 whole entry): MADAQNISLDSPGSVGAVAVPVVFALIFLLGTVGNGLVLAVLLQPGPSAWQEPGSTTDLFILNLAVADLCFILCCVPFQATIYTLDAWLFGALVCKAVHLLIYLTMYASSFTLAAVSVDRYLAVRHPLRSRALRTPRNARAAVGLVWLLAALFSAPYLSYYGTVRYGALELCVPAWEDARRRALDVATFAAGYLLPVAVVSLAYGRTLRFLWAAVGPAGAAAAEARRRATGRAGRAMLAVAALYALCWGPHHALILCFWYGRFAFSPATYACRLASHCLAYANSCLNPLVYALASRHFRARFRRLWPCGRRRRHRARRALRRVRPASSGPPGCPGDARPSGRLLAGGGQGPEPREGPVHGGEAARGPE

## Cc1cc(C)cc(OC(=O)C[S+]([O-])c2ccc(C(F)(F)F)cc2[N+](=O)[O-])c1 (configuration not stated)
[1]
  AC50: 4.03 µM (active)
[2]
  AC50: 10.3 µM (active)
[3]
  EC50: > 91.2 µM (inactive)
Protein RecA
  EC50: 1.3 µM (active)
[4]
  EC50: > 91.2 µM (inactive)

## COC(=O)c1cc(Br)cnc1N1CCCC(NC2CCCCC2)C1 (configuration not stated)
[5]
  IC50: 11.7 µM (inactive)

## CC(CC(=O)Nc1ccc(Cl)c(S(=O)(=O)N2CCOCC2)c1)c1ccccc1 (configuration not stated)
cells
  EC50: > 29.9 µM (inactive)
Galanin receptor type 3
  IC50: 1.21 µM (active)

## CC(=O)Nc1nc(-c2ccc(S(=O)(=O)N3CCOCC3)cc2)cs1
Fatty acid synthase
  IC50: 11.4 µM (active)

## CC(C)c1ccccc1N=C(S)NN(Cc1ccccc1)c1ccccc1
HeLa
  AC50: > 52 µM (inactive)
[6]
  IC50: < 0.4 µM (not active)

## [O-][S+](Cc1cn(-c2ccccc2)nn1)c1nnc(-c2ccc(Cl)cc2)o1 (configuration not stated)
[7]
  AC50: 15.6 µM (active)
